Source: ChEMBL document CHEMBL1201862, “PubChem BioAssay data set” (2004)
Calls of active or inactive are those of the source.

Columns and labels:
[1] = tested on: A-375; experiment: A375 melanoma cell viability reduction, dose response, counter-screen for MITF modulator project, cherry-pick samples, set 2 (AID 540335); type: functional, cell-based; details: Homo sapiens
[2] = tested on: A-375; experiment: MITF: Counter assay: A375 proliferation Measured in Cell-Based System Using Plate Reader - 2084-03_Inhibitor_Dose_DryPowder_Activity. [Related pubchem assays (depositor defined):AID488944]; type: functional; details: Homo sapiens
[3] = tested on: HEK293; experiment: cells; details: Homo sapiens
[4] = target: Heat shock protein HSP 90-alpha (Homo sapiens, UniProt P07900); type: functional, organism-based
[5] = tested on: HEK293; experiment: cells; details: Homo sapiens; remark: listed apart in the source
[6] = target: UDP-galactopyranose mutase (Mycobacterium tuberculosis, UniProt P9WIQ1); experiment: Inhibitors of Mycobacterium tuberculosis UDP-galactopyranose mutase (UGM) enzyme Measured in Biochemical System Using Plate Reader - 2105-02_Inhibitor_Dose_CherryPick_Activity. [Related pubchem assays (depositor defined):AID504439]
UDP-galactopyranose mutase, sequence (P9WIQ1 whole entry): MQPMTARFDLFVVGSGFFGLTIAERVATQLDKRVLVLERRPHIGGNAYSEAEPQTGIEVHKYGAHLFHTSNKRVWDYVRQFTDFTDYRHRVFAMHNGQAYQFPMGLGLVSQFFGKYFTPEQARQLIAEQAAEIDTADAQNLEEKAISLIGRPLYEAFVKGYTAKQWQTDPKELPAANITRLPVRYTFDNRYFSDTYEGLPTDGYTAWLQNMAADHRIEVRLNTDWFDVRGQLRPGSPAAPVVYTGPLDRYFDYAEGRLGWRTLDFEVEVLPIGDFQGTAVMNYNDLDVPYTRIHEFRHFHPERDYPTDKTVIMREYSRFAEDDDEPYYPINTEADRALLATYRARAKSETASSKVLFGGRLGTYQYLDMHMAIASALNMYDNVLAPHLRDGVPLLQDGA

[7] = mammalian cell cytotoxicity, dose response, cytotoxicity control, plate reader, cherry-pick samples (AID 504397); type: functional, cell-based
[8] = target: Phosphomannomutase 2 (Homo sapiens, UniProt O15305); experiment: Counter screen SAR assay for PMM2 inhibitors via a fluorescence intensity assay. [Related pubchem assays (depositor defined):AID1545, AID1574]
Phosphomannomutase 2, sequence (O15305 whole entry): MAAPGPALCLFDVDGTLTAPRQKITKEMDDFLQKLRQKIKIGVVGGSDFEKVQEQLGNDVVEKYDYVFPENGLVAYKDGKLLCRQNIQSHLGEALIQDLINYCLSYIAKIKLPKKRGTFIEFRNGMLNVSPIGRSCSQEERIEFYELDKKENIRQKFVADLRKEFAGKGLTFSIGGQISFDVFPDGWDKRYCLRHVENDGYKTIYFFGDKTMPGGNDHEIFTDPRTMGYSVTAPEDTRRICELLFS

[9] = target: T1, Mannose-6-phosphate isomerase (Homo sapiens, UniProt P34949); experiment: inhibitors of human PMI, primary screen, biochemical, fluorescence intensity, coupled assay (AID 1209)
T1 sequence (P34949 whole entry): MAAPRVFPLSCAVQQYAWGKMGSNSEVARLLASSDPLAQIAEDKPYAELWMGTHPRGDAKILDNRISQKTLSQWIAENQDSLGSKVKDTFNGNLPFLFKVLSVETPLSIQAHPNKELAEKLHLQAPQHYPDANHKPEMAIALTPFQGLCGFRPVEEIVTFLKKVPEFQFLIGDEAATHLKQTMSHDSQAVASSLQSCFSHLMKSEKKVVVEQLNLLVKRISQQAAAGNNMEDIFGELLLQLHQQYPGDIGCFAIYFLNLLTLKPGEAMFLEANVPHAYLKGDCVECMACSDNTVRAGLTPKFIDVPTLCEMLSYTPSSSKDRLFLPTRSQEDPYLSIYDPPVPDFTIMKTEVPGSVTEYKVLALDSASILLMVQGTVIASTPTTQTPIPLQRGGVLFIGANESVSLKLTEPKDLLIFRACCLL

[10] = target: T1, Mannose-6-phosphate isomerase; experiment: PMI enzyme inhibitors, confirmation, biochemical, fluorescence intensity (AID 1535)

For `Cc1ccc(SCc2cn3cc(Cl)ccc3n2)cc1`, which AC50 [1] is on record?
Its AC50 is > 35 µM (active).

What about the AC50 [2] of the same compound?
Its AC50 is > 35 µM (active).

With `O=C(C=Cc1ccccn1)c1ccccc1O` as the compound, how does the EC50 [3] read?
Its EC50 is > 59.6 µM (inactive).

And the AC50 [4]?
Its AC50 is 2.37 µM (active).

What about the EC50 [5] of the same compound?
Its EC50 is > 59.6 µM (inactive).

Which AC50 [6] does the source give for `COc1ccccc1N1C(=O)C2C(C(=O)c3ccccc3)=NN(c3ccc(Br)cc3)C2C1=O` (configuration not stated) here?
Its AC50 is 265 µM (active).

With `CN(C)C(=S)N=c1ssc(=S)n1Cc1ccccc1` as the compound, how does the EC50 [3] read?
The EC50 was > 59.7 µM (inactive).

And the EC50 [5]?
Its EC50 is > 59.7 µM (inactive).

Which AC50 [7] does the source give for `Cc1oc(-c2cccs2)nc1CSCC(=O)N1CCC2(CC1)OCCO2` here?
The AC50 was 256 µM (active).

For `Cc1cc2n(n1)SC(Nc1ccc(F)c(Cl)c1)N2` (configuration not stated), which IC50 [8] is on record?
Its IC50 is > 100 µM (inactive).

And the IC50 [9]?
The IC50 was > 50 µM (not active).

And the IC50 [10]?
Its IC50 is > 50 µM (inactive).
